Results as given in patent publication US8658661B2, “Oxadiazole inhibitors of leukotriene production” (Boehringer Ingelheim International GmbH, priority 2010, dated 2014).

Experiments:
[1] = tested on: synthesis of LTB4 in human whole blood; experiment: Human whole blood assay (inhibition of LTB4 synthesis, calcimycin stimulated); type: cell-based; settings: heparinized human whole blood, calcimycin 20 μM, plasma LTB4
In short: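 Heparinized human whole blood was preincubated with compound for 15 min at 37° C, then stimulated with calcimycin (20 μM final, in PBS pH 7.4) for a further 30 min at 37° C. Plasma LTB4 was quantified by antibody-based homogeneous time-resolved fluorescence.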

[2] = target: T1, recombinant human FLAP protein (Homo sapiens, UniProt P20292); experiment: FLAP binding assay (SPA, displacement of [125I]L-691,831); settings: membranes of sf9 cells expressing recombinant human FLAP; [125I]L-691,831 probe; read-out: FLAP binding IC50
T1 construct: made in house; host or cells: Sf9 insect cells (100,000×g membrane pellet used)
T1 sequence (P20292 1-161): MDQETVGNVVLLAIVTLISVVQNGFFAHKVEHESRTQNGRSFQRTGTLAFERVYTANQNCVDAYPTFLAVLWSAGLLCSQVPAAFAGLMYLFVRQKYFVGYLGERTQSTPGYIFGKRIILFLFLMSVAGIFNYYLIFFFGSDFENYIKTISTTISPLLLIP
In short: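 Membranes from sf9 cells expressing human FLAP in pH 7.5 Tris buffer (MgCl2, EDTA, PMSF). Non-specific binding defined with 10 μM cold L-691,831.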

Which IC50 [1] does the source give for `CC(C)C(C)(c1ccc(-c2cnc(N)nc2)cc1)c1noc(-c2cnn(C)c2)n1` (centres unmarked) [Example 15, 5-(4-{3-methyl-2-[5-(1-methyl-1H-pyrazol-4-yl)-1,2,4-oxadiazol-3-yl]butan-2-yl}1phenyl)pyrimidin-2-amine] here?
The IC50 was 46 nM.

What about the IC50 [2] of the same molecule?
The IC50 was 2 nM.

How did the IC50 [1] turn out when `CC(c1ccc(-c2cnc(N)nc2)cc1)(c1noc(N2CCN(CCO)CC2)n1)C1CC1` (centres unmarked) [Example 252, 2-[4-(3-{1-[4-(2-Amino-pyrimidin-5-yl)-phenyl]-1-cyclopropyl-ethyl}-[1,2,4]oxadiazol-5-yl)-piperazin-1-yl]-ethanol] was run?
Its IC50 is 220 nM.

What about the IC50 [2] of the same molecule?
The IC50 was 15 nM.

Which IC50 [1] does the source give for `CN(C)C(=O)Cn1cc(-c2nc(C(C)(c3ccc(-c4ncc(N)nc4C#N)cc3)C3CC3)no2)cn1` (centres unmarked) [Example 295, 2-[4-(3-{1-[4-(5-Amino-3-cyano-pyrazin-2-yl)-phenyl]-1-cyclopropyl-ethyl}-[1,2,4]oxadiazol-5-yl)-pyrazol-1-yl]-N,N-dimethyl-acetamide] here?
The IC50 was 150 nM.

What about the IC50 [2] of the same molecule?
Its IC50 is 7.5 nM.

What does the source list for `Cn1cc(-c2nc(C(C)(c3ccc(-c4cncc(OCc5ccccc5)c4)cc3)C3CC3)no2)cn1` (centres unmarked) [Example 290, 3-Benzyloxy-5-(4-{1-cyclopropyl-1-[5-(1-methyl-1H-pyrazol-4-yl)-[1,2,4]oxadiazol-3-yl]-ethyl}-phenyl)-pyridine]?
IC50 [1]: 2000 nM; IC50 [2]: 22 nM

`COCCNc1cnc(-c2nc([C@@](C)(c3ccc(-c4cnc(N)nc4)cc3)C(C)C)no2)cn1` [Example 123, 5-{4-[(2R)-2-(5-{5-[(2-methoxyethyl)amino]pyrazin-2-yl}-1,2,4-oxadiazol-3-yl)-3-methylbutan-2-yl]phenyl}pyrimidin-2-amine] was tested. Which IC50 [1] did it give?
The IC50 was 42 nM.

What about the IC50 [2] of the same molecule?
The IC50 was 1.7 nM.

How did the IC50 [1] turn out when `CC(C)C(C)(c1ccc(-c2cnc(N)nc2)cc1)c1noc(C2CCCCN2)n1` (centres unmarked) [Example 114, 5-(4-{3-methyl-2-[5-(piperidin-2-yl)-1,2,4-oxadiazol-3-yl]butan-2-yl}phenyl)pyrimidin-2-amine] was run?
Its IC50 is 1100 nM.

What about the IC50 [2] of the same molecule?
Its IC50 is 21 nM.

Which results are given for `COCCn1cc(-c2nc([C@@](C)(c3ccc(-c4cnc(N)cn4)cc3)C3CC3)no2)cn1` [Example 191, 5-[4-((R)-1-Cyclopropyl-1-{5-[1-(2-methoxy-ethyl)-1H-pyrazol-4-yl]-[1,2,4]oxadiazol-3-yl}-ethyl)-phenyl]-pyrazin-2-ylamine]?
IC50 [1]: 17 nM; IC50 [2]: 5.9 nM

What does the source list for `CC(C)C(C)(c1ccc(-c2cnc(N)nc2)cc1)c1noc(N2CCNCC2)n1` (centres unmarked) [Example 83, 5-(4-{3-methyl-2-[5-(piperazin-1-yl)-1,2,4-oxadiazol-3-yl]butan-2-yl}phenyl)pyrimidin-2-amine]?
IC50 [1]: 1100 nM; IC50 [2]: 26 nM

How did the IC50 [1] turn out when `CN(c1nc(C(C)(c2ccc(-c3cnc(N)nc3)cc2)C2CC2)no1)C1CCC(O)CC1` (centres unmarked) [Example 297, 4-[(3-{1-[4-(2-Amino-pyrimidin-5-yl)-phenyl]-1-cyclopropyl-ethyl}-[1,2,4]oxadiazol-5-yl)-methyl-amino]-cyclohexanol] was run?
Its IC50 is 79 nM.

And the IC50 [2]?
Its IC50 is 8.5 nM.

Which IC50 [1] does the source give for `CC(C)[C@](C)(c1ccc(-c2cnc(N)nc2)cc1)c1noc(-c2ccn(C)n2)n1` [Example 16, 5-(4-{(2R)-3-methyl-2-[5-(1-methyl-1H-pyrazol-3-yl)-1,2,4-oxadiazol-3-yl]butan-2-yl}phenyl)pyrimidin-2-amine] here?
The IC50 was 110 nM.

What about the IC50 [2] of the same molecule?
Its IC50 is 2.5 nM.

`C[C@@](c1ccc(-c2ccc(N)nc2)cc1)(c1noc(-c2cnn(C3COC3)c2)n1)C1CC1` [Example 263, 5-(4-{(R)-1-Cyclopropyl-1-[5-(1-oxetan-3-yl-1H-pyrazol-4-yl)-[1,2,4]oxadiazol-3-yl]-ethyl}-phenyl)-pyridin-2-ylamine] was tested. Which IC50 [1] did it give?
The IC50 was 21 nM.

What about the IC50 [2] of the same molecule?
Its IC50 is 3.5 nM.

`CC(C)C(C)(c1ccc(-c2cnc(N)nc2)cc1)c1noc(C2CCN(C)CC2)n1` (centres unmarked) [Example 150, 5-(4-{3-methyl-2-[5-(1-methylpiperidin-4-yl)-1,2,4-oxadiazol-3-yl]butan-2-yl}phenyl)pyrimidin-2-amine] was tested. Which IC50 [1] did it give?
The IC50 was 1800 nM.

What about the IC50 [2] of the same molecule?
The IC50 was 330 nM.

What does the source list for `CC(C)C(C)(c1ccc(-c2cnc(N)nc2)cc1)c1noc(C(=O)N2CCN(C)CC2)n1` (centres unmarked) [Example 91, (3-{2-[4-(2-aminopyrimidin-5-yl)phenyl]-3-methylbutan-2-yl}-1,2,4-oxadiazol-5-yl)(4-methylpiperazin-1-yl)methanone]?
IC50 [1]: 1300 nM; IC50 [2]: 54 nM

Which IC50 [1] does the source give for `CC(C)C(C)(c1ccc(-c2cnc(N)nc2)cc1)c1noc(C2CCCC(=O)N2)n1` (centres unmarked) [Example 167, 6-(3-{2-[4-(2-aminopyrimidin-5-yl)phenyl]-3-methylbutan-2-yl}-1,2,4-oxadiazol-5-yl)piperidin-2-one] here?
Its IC50 is 4300 nM.

What about the IC50 [2] of the same molecule?
Its IC50 is 46 nM.

Which IC50 [1] does the source give for `CN(C)C(=O)Cn1cc(-c2nc([C@@](C)(c3ccc(-c4cnc(N)c(F)c4)cc3)C3CC3)no2)cn1` [Example 291, 2-[4-(3-{(R)-1-[4-(6-Amino-5-fluoro-pyridin-3-yl)-phenyl]-1-cyclopropyl-ethyl}-[1,2,4]oxadiazol-5-yl)-pyrazol-1-yl]-N,N-dimethyl-acetamide] here?
Its IC50 is 89 nM.

What about the IC50 [2] of the same molecule?
Its IC50 is 4.5 nM.

Which results are given for `CC(C)C(C)(c1ccc(-c2cnc(N)nc2)cc1)c1noc(C2CCCCC2)n1` (centres unmarked) [Example 119, 5-{4-[2-(5-cyclohexyl-1,2,4-oxadiazol-3-yl)-3-methylbutan-2-yl]phenyl}pyrimidin-2-amine]?
IC50 [1]: 900 nM; IC50 [2]: 9.2 nM

How did the IC50 [1] turn out when `CCNc1ncc(-c2ccc(C(C)(c3noc(-c4cnn(CC(=O)N(C)C)c4)n3)C3CC3)cc2)cn1` (centres unmarked) [Example 249, 2-[4-(3-{1-Cyclopropyl-1-[4-(2-ethylamino-pyrimidin-5-yl)-phenyl]-ethyl}-[1,2,4]oxadiazol-5-yl)-pyrazol-1-yl]-N,N-dimethyl-acetamide] was run?
The IC50 was > 5000 nM.

And the IC50 [2]?
The IC50 was 370 nM.

`CN(C)C(=O)Cn1cc(-c2nc(C(C)(c3ccc(-c4cnc5[nH]ccc5n4)cc3)C3CC3)no2)cn1` (centres unmarked) [Example 247, 2-[4-(3-{1-Cyclopropyl-1-[4-(5H-pyrrolo[2,3-b]pyrazin-2-yl)-phenyl]-ethyl}-[1,2,4]oxadiazol-5-yl)-pyrazol-1-yl]-N,N-dimethyl-acetamide] was tested. Which IC50 [1] did it give?
The IC50 was 300 nM.

What about the IC50 [2] of the same molecule?
Its IC50 is 5.9 nM.

For `CC(C)C(C)(c1ccc(-c2cnc(N)nc2)cc1)c1noc(CCC(C)(C)C(=O)O)n1` (centres unmarked) [Example 85, 4-(3-{2-[4-(2-aminopyrimidin-5-yl)phenyl]-3-methylbutan-2-yl}-1,2,4-oxadiazol-5-yl)-2,2-dimethylbutanoic acid], which IC50 [1] is on record?
The IC50 was > 5000 nM.

What about the IC50 [2] of the same molecule?
The IC50 was 48 nM.

For `CC(C)C(C)(c1ccc(-c2cnc(N)nc2)cc1)c1noc(N2CCN(CCO)CC2)n1` (centres unmarked) [Example 186, 2-[4-(3-{1-[4-(2-Amino-pyrimidin-5-yl)-phenyl]-1,2-dimethyl-propyl}-[1,2,4]oxadiazol-5-yl)-piperazin-1-yl]-ethanol], which IC50 [1] is on record?
Its IC50 is 150 nM.

What about the IC50 [2] of the same molecule?
The IC50 was 20 nM.

With `CNc1ccc(-c2ccc(C(C)(c3noc(-c4cnn(CC(=O)N(C)C)c4)n3)C3CC3)cc2)cn1` (centres unmarked) [Example 251, 2-[4-(3-{1-Cyclopropyl-1-[4-(6-methylamino-pyridin-3-yl)-phenyl]-ethyl}-[1,2,4]oxadiazol-5-yl)-pyrazol-1-yl]-N,N-dimethyl-acetamide] as the molecule, how does the IC50 [1] read?
Its IC50 is 130 nM.

What about the IC50 [2] of the same molecule?
Its IC50 is 9.1 nM.

What does the source list for `Cn1cc(-c2nc([C@H](c3ccc(-c4cnc(N)nc4)cc3)C(C)(C)C)no2)cn1` [Example 66, 5-(4-{(1S)-2,2-dimethyl-1-[5-(1-methyl-1H-pyrazol-4-yl)-1,2,4-oxadiazol-3-yl]propyl}phenyl)pyrimidin-2-amine]?
IC50 [1]: 330 nM; IC50 [2]: 11 nM

`CN(C)C(=O)Cn1cc(-c2nc(C(C)(c3ccc(-c4ccc(F)nc4N)cc3)C3CC3)no2)cn1` (centres unmarked) [Example 277, 2-[4-(3-{1-[4-(2-Amino-6-fluoro-pyridin-3-yl)-phenyl]-1-cyclopropyl-ethyl}-[1,2,4]oxadiazol-5-yl)-pyrazol-1-yl]-N,N-dimethyl-acetamide] was tested. Which IC50 [1] did it give?
Its IC50 is > 5000 nM.

What about the IC50 [2] of the same molecule?
Its IC50 is 64 nM.

How did the IC50 [1] turn out when `CC(C)C(C)(c1ccc(-c2cnc(N)nc2)cc1)c1noc(C(C)(C)CC(=O)O)n1` (centres unmarked) [Example 92, 3-(3-{2-[4-(2-aminopyrimidin-5-yl)phenyl]-3-methylbutan-2-yl}-1,2,4-oxadiazol-5-yl)-3-methylbutanoic acid] was run?
The IC50 was > 5000 nM.

What about the IC50 [2] of the same molecule?
Its IC50 is 110 nM.

For `CC(C)C(C)(c1ccc(-c2cnc(N)nc2)cc1)c1noc(-c2cnn(C3COC3)c2)n1` (centres unmarked) [Example 161, 5-[4-(3-methyl-2-{5-[1-(oxetan-3-yl)-1H-pyrazol-4-yl]-1,2,4-oxadiazol-3-yl}butan-2-yl)phenyl]pyrimidin-2-amine], which IC50 [1] is on record?
The IC50 was 36 nM.

What about the IC50 [2] of the same molecule?
The IC50 was 2 nM.

For `CN(C)C(=O)Cn1cc(-c2nc(C(C)(c3ccc(-c4cnc5[nH]ccc5c4)cc3)C3CC3)no2)cn1` (centres unmarked) [Example 242, 2-[4-(3-{1-Cyclopropyl-1-[4-(1H-pyrrolo[2,3-b]pyridin-5-yl)-phenyl]-ethyl}-[1,2,4]oxadiazol-5-yl)-pyrazol-1-yl]-N,N-dimethyl-acetamide], which IC50 [1] is on record?
The IC50 was 310 nM.

What about the IC50 [2] of the same molecule?
The IC50 was 5.7 nM.

How did the IC50 [1] turn out when `CC(C)(CO)Nc1cnc(-c2nc(C(C)(c3ccc(-c4cnc(N)nc4)cc3)C3CC3)no2)cn1` (centres unmarked) [Example 45, 2-{[5-(3-{1-[4-(2-aminopyrimidin-5-yl)phenyl]-1-cyclopropylethyl}-1,2,4-oxadiazol-5-yl)pyrazin-2-yl]amino}-2-methylpropan-1-ol] was run?
Its IC50 is 140 nM.

And the IC50 [2]?
The IC50 was 3.1 nM.

With `Cc1n[nH]c(C)c1-c1nc(C(C)(c2ccc(-c3cnc(N)nc3)cc2)C(C)C)no1` (centres unmarked) [Example 133, 5-(4-{2-[5-(3,5-dimethyl-1H-pyrazol-4-yl)-1,2,4-oxadiazol-3-yl]-3-methylbutan-2-yl}phenyl)pyrimidin-2-amine] as the molecule, how does the IC50 [1] read?
The IC50 was 190 nM.

And the IC50 [2]?
Its IC50 is 1.6 nM.
